Read-outs that look alike come from different tables or passages of the source.
Assays:
[1] = test system: P. falciparum asexual blood stages; settings: read-out: Pf Asexual blood stages XC50, cited from earlier work
[2] = test system: P. falciparum stages IV–V gametocytes; assay: Gametocytocidal ATP-depletion assay (gametocyte ATP bioluminescence); format: cell-based, Plasmodium falciparum
Method in brief: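 Read-out is luciferase luminescence of parasite ATP (BacTiter-Glo), standing in for viability. Double-purified mature stage IV–V gametocytes, 12,500 per well, were exposed 48 h at 37 °C in low-O2 gas; screening concentration 2 μM.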

HepG2 cells = assay: HepG2 cytotoxicity assay; format: cell-based
Method in brief: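 Once incubation ended, the HepG2 plates were warmed to room temperature for 30 min alongside the CellTiter-Glo reagent. Luminescent signal was developed by reagent addition and stabilized for 10 min before plate reading.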

[3] = test system: P. falciparum stage V female gametocytes; assay: P. falciparum female gametocyte activation assay (Pf FGAA), 24 h or 48 h preincubation, Pfs25 expression readout; format: cell-based, Plasmodium falciparum NF54; settings: mean, read-out: Gametocytes mean Pf FGAA IC50
Method in brief: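 Female activation, triggered by xanthurenic acid and cooling, was scored by imaging Cy3-labelled anti-Pfs25 female gametes after 24 h at 26 °C. Beforehand, purified NF54 stage V gametocytes had been incubated with compound for either 24 h or 48 h (37 °C, 3% O2). Values are pIC50 from full-curve regression.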

[4] = TCAMS asexual blood stage data, ref 1 (Gamo, F. J. et al., Nature 465, 305-310, 2010)
[5] = P. falciparum female gametocytes
[6] = P. falciparum female gametocyte activation assay
[7] = TCAMS data, ref 1 (Gamo et al., 2010)

| SMILES | IC50 [3, 5] [nM] | IC50 [3, 6] [nM] | IC50 [3] [nM] | IC50 [1, 4] [nM] | Gametocytes mean ATP inhibition at 2µM [2] [%] | HepG2 cells mean TOX50 (HepG2 cells; HepG2 cells; mean) [µM] | HepG2 cells mean TOX50 (HepG2 cells; mean; HepG2 cells) [µM] | IC50 [1, 7] [nM] | Gametocytes mean ATP inhibition at 2µM (%) [2] [%] | HepG2 cells mean TOX50 (HepG2 cells; mean) [µM] |
| --- | --- | --- | --- | --- | --- | --- | --- | --- | --- | --- |
| O=C(O)CCSSc1cccc[n+]1[O-] [TCMDC-141973] | – | 40 | – | 810 | 100.49 | – | 19.05 | – | – | – |
| CCCCOc1cc(OC)c2ccccc2c1CCNCCCCNCCc1c(OCCCC)cc(OC)c2ccccc12.CS(=O)(=O)O [TCMDC-137845] | – | – | 760 | – | – | – | – | 1050 | 95.21 | 1.97 |
| CC(Cc1ccc(OCCCCOc2ccccc2)cc1)NCCC1CCCN1C (stereo not shown) [TCMDC-140017] | – | – | 200 | – | – | – | – | 40 | 85.16 | 1.12 |
| Cc1[nH]c(C)c(-c2ccc(CCc3ccc(F)cc3F)cc2)c(=O)c1Cl [TCMDC-135462] | 13300 | – | – | 16 | 51.34 | >100 | – | – | – | – |
| CCCOc1c(CCNCCCCNCCc2ccc3ccccc3c2OCCC)ccc2ccccc12.CS(=O)(=O)O [TCMDC-137950] | – | – | 640 | – | – | – | – | 480 | 95.44 | 1.72 |
| COc1cc2ccccc2cc1CCNCCCCNCCc1cc2ccccc2cc1OC.CS(=O)(=O)O [TCMDC-137944] | – | – | 620 | – | – | – | – | 400 | 84.04 | 1.66 |
| Cl.N=C(NCCCCC1CCCCC1)c1cccc(C(=N)NCCCCC2CCCCC2)n1 [TCMDC-137452] | – | – | 1050 | – | – | – | – | 400 | 95.86 | 1.82 |
| CN1CCCC(CN2CCN(Cc3cccc(-c4ccc(-c5nc6cc(C(F)(F)F)ccc6[nH]5)cc4)c3)CC2)C1.O=C(O)C(F)(F)F (stereo not shown) [TCMDC-133882] | 1300 | – | – | 150 | 1.53 | 4.07 | – | – | – | – |
| CC(C)(C)c1ccc(CN2CCC(CNC(=O)c3cc(-c4cccc(Cl)c4)cs3)C2)cc1.O=C(O)C(F)(F)F (stereo not shown) [TCMDC-134446] | 990 | – | – | 1160 | -13.17 | 7.42 | – | – | – | – |
| CC(C)Oc1ccc2ccccc2c1CNCCCCCCNCc1c(OC(C)C)ccc2ccccc12.CS(=O)(=O)O [TCMDC-137965] | – | – | 950 | – | – | – | – | 610 | 37.88 | 1.91 |
| CC(C)c1ccc(CN2CCC(CNC(=O)c3cc(-c4ccc(N(C)C)cc4)cs3)C2)cc1.O=C(O)C(F)(F)F (stereo not shown) [TCMDC-134440] | 710 | – | – | 1250 | -6.60 | 5.85 | – | – | – | – |
| Br.C/C=C/C=C/C1=NCCc2cc(OCCC)ccc21 [TCMDC-137442] | – | – | 1300 | – | – | – | – | 910 | 30.75 | 18.29 |
| CN1CCCC1CCNc1ncc2c(-c3ccc(NC(=O)Nc4cc(C(F)(F)F)ccc4F)c(F)c3)nn(C)c2n1.O=C(O)C(F)(F)F (stereo not shown) [TCMDC-141610] | – | 1470 | – | 290 | -9.33 | – | 4.62 | – | – | – |
| Fc1ccc2[nH]c(-c3cccc(-c4ccc(CN5CCC(CCN6CCCCC6)CC5)cc4)c3)nc2c1.O=C(O)C(F)(F)F [TCMDC-133940] | 1880 | – | – | 140 | -4.48 | 4.79 | – | – | – | – |
| Cc1cc(I)ccc1Nc1nc2nonc2nc1Nc1ccc(I)cc1C [TCMDC-124083] | 1080 | – | – | 510 | 6.94 | 0.93 | – | – | – | – |
| CN(C)CCN(C)Cc1ccc(-c2ccc3c(Nc4ccc(Oc5ccccn5)cc4)ccnc3c2)o1 [TCMDC-138426] | – | – | 2050 | – | – | – | – | 420 | 16.13 | 5.37 |
| COc1ccc(-c2ccccc2)cc1NC(=S)NC1CCC(CN2CCC(c3c[nH]c4ccccc34)CC2)CC1 (stereo not shown) [TCMDC-140182] | – | – | 1650 | – | – | – | – | 650 | 21.09 | 5.50 |
| O=C(c1ccc([N+](=O)[O-])o1)N1CCC(Cc2ccc(C(F)(F)F)cc2)CC1 [TCMDC-124805] | 160 | – | – | 170 | 93.11 | 27.05 | – | – | – | – |
| FC(F)(F)c1ccc2[nH]c(-c3ccc(-c4ccc(CNCCN5CCNCC5)cc4)s3)nc2c1.O=C(O)C(F)(F)F [TCMDC-132862] | 3000 | – | – | 910 | -0.18 | 12.88 | – | – | – | – |
| CCCN(CCC)CCCN(CCCN(CCC)CCC)c1cc(C)nc(Nc2ccc3cc(Br)ccc3c2)n1.Cl [TCMDC-138006] | – | – | 990 | – | – | – | – | 210 | -22.37 | 3.43 |

Further lines, with some results ahead:

| IC50 [3, 5] [nM] | IC50 [3, 6] [nM] | IC50 [3] [nM] | SMILES | IC50 [1, 4] [nM] | Gametocytes mean ATP inhibition at 2µM [2] [%] | HepG2 cells mean TOX50 (HepG2 cells; HepG2 cells; mean) [µM] | HepG2 cells mean TOX50 (HepG2 cells; mean; HepG2 cells) [µM] | IC50 [1, 7] [nM] | Gametocytes mean ATP inhibition at 2µM (%) [2] [%] | HepG2 cells mean TOX50 (HepG2 cells; mean) [µM] |
| --- | --- | --- | --- | --- | --- | --- | --- | --- | --- | --- |
| 60 | – | – | Cc1occc1C(=O)Nc1nc(-c2ccccn2)nc2ccsc12 [TCMDC-135244] | 900 | 87.21 | >100 | – | – | – | – |
| – | – | 850 | COc1cc2nc(N3CCC(CNC(=O)c4ccc(-c5ccc(C(F)(F)F)cc5)cc4)CC3)nc(N)c2cc1OC [TCMDC-138716] | – | – | – | – | 130 | 21.96 | 4.92 |
| – | – | 3490 | CN1CCN(CCNc2c3ccccc3nc3c2ccc2ccccc23)CC1.Cl [TCMDC-137723] | – | – | – | – | 610 | 67.71 | 5.07 |
| – | – | 1120 | CC(Cc1ccc(NC(=O)c2ccc(CNCCCCc3ccccc3)cc2)cc1)NCCc1cccc(Cl)c1.Cl (stereo not shown) [TCMDC-139866] | – | – | – | – | 330 | 18.31 | 1.97 |
| – | – | 90 | CN(CCCNCc1ccc2ccccc2c1)CCCNCc1ccc2ccccc2c1.Cl [TCMDC-137908] | – | – | – | – | 390 | 72.34 | 5.01 |
| – | 1730 | – | Cc1ccc(Cn2ncc(N3CCCNCC3)c(Cl)c2=O)cc1NC(=O)Nc1ccc(-c2ccccc2)cc1 [TCMDC-141924] | 630 | -4.47 | – | 7.86 | – | – | – |
| 2490 | – | – | COc1ccccc1C1CCN(C2CCC(NC(=O)c3ccc4[nH]c(-c5ccc(C)cc5)nc4c3)CC2)CC1 (stereo not shown) [TCMDC-133556] | 310 | 22.02 | 3.99 | – | – | – | – |
| – | – | 2000 | CC(C)(C)c1ccc(CNC(=O)c2cc(CNC3CCNCC3)ccc2O)cc1 [TCMDC-140775] | – | – | – | – | 710 | -11.19 | 13.96 |
| – | – | 860 | CC(Cc1ccc(CNC(=O)c2ccc(CC(C)NCCc3cccc(Cl)c3)cc2)cc1)NCCc1cccc(Cl)c1 (stereo not shown) [TCMDC-139659] | – | – | – | – | 700 | -0.70 | 2.26 |
| – | – | 2070 | CC(Cc1ccc(NC(=O)c2ccc(CNCCc3ccccc3)cc2)cc1)NCCc1cccc(Cl)c1.Cl (stereo not shown) [TCMDC-139867] | – | – | – | – | 350 | 10.73 | 4.17 |
| – | – | 100 | COc1cc2nc(N3CCC(CNCc4ccc(-c5ccc(C(F)(F)F)cc5)cc4)CC3)nc(N)c2cc1OC [TCMDC-138757] | – | – | – | – | 90 | 99.68 | 1.43 |
| 1020 | – | – | CCc1c(CCNCCCCCCNCCc2ccc3c(c2C)OCO3)ccc2c1OCO2.Cl [TCMDC-132093] | 610 | 10.41 | 3.89 | – | – | – | – |
| 900 | – | – | COc1cc2nc(NCCCN3CCCCC3)nc(NCc3ccccc3)c2cc1OC [TCMDC-132012] | 1000 | 19.39 | 6.84 | – | – | – | – |
| – | – | 1460 | COc1c(C2CCN(CCN3CCC(CNC(=O)c4ccc(-c5ccc(C#N)cc5)cc4)CC3)CC2)ccc2c1CCCC2 [TCMDC-138859] | – | – | – | – | 460 | 3.05 | 3.43 |
| – | – | 2380 | Cl.Nc1c2c(nc3ccc(NC(=O)CCCCCCc4ccccc4)cc13)CCCC2 [TCMDC-139056] | – | – | – | – | 250 | -10.66 | 5.42 |
| – | – | 520 | Cl.Clc1ccc(OCCC2CCN(CCCCCCCN3CCC(CCOc4ccc(Cl)c(Cl)c4)CC3)CC2)cc1Cl [TCMDC-138967] | – | – | – | – | 620 | 95.79 | 1.64 |
| 330 | – | – | ON=C(c1nc2ccccc2[nH]1)c1nc2ccccc2[nH]1 [TCMDC-125758] | 1090 | 89.28 | 4.96 | – | – | – | – |

— publication PMC5442318, “Hundreds of dual-stage antimalarial molecules discovered by a functional gametocyte screen” (Nature Communications, 2017)
